Results reported in patent US12318372B2, “Formulations with enhanced SN-38 solubility and oral absorption” (TaiRx Inc., priority 2021, dated 2025).
Several values for one entry are separate records, joined by “and”; a condition that tells them apart may be missing. Equal entries are not always repeated. Entries after “also recorded” stand apart in the source; their conditions may differ. Structures can show the parent of a compound that is named as a salt. Where two headings read alike, the source gives them in different places.

How the values were obtained:
[1] = cited from earlier work
[2] = rabbit; cited from earlier work
[3] = guinea pig; cited from earlier work
[4] = cited from earlier work; remark: listed apart in the source
[5] = cited from earlier work; remark: listed apart in the source
[6] = test system: HCT-116 colon cancer cells; assay: Study #1 orthotopic HCT-116 xenograft efficacy; type: in vivo, mouse
[7] = test system: HCT-116 colon cancer cells; assay: Study #2 follow up orthotopic HCT-116 xenograft efficacy; type: in vivo, female BALB/c nude mice; settings: 25.9 mg/kg i.v. BIW x 6 doses
[8] = test system: HCT-116 colon cancer cells; type: in vivo; settings: 25.9 mg/kg i.v. Q4D x 3 wks
[9] = SN-38 content of NMP/VitE TPGS/polymer gels (HPLC); type: physicochemical
Description: For HPC, both above tested percentages (2 and 5%) will be further tested with SN-38. […] This starting solution is prepared by over stirred 24 hours at 20° C. and then filtered before being used for into polymer solubilization.
The three polymers of interest (HPMC E4M, HPMC E10M, and HPC Klucel) are weighed (according to the above selected percentages) and added for solubilization and under stirring onto the SN-38 solution in NMP/VitE TPGS 50/20 mixture. After 24 h stirring at 20° C., the 3 samples are visually observed, and their SN-38 content is assessed by HPLC (after dilution in an appropriate solvent).

[10] = times more cytotoxic than CPT-11; cited from earlier work
[11] = Visual SN-38 solubilization in PLGA/NMP mixtures; type: physicochemical; settings: PLGA (75:25):NMP mixture at mass ratio 1:2
Description: SN-38 solubilization in these two PLGA/NMP solution mixtures is then tested with a SN-38 starting concentration of 20 mg/g and then decreasing the tested concentration if needed. Table 13 presents the results of macroscopic observation of tentative SN-38 solubilization in PLGA/NMP mixtures

[12] = SN-38 solubility at saturation in excipients and excipient mixtures (HPLC); type: physicochemical
Description: The saturation is obtained by adding gradually an excess of active ingredient (maximum target being 50 mg/mL) to a given volume of test medium. […]
The supernatant is then isolated, diluted in a solvent mixture allowing its injection into the chromatographic system. The concentration in solution for each medium is determined by HPLC (external standardization).

SMILES: CCc1c2c(nc3ccc(OC(=O)N4CCC(N5CCCCC5)CC4)cc13)-c1cc3c(c(=O)n1C2)COC(=O)[C@]3(O)CC [CPT-11, irinotecan]
- aqueous solubility ([1]; HCl salt, in water): 25 mM
- antigenic potential [2]: has shown antigenic potential
- antigenic potential [3]: has shown antigenic potential
- dogs showing emesis ([4]; 20 mg/kg i.v.): five of six
- mortality ([4]; dogs, 40 mg/kg): the two dogs died 3 and 6 minutes later
- time to emesis ([4]; dogs, 40 mg/kg): 1 min
- irinotecan remained unhydrolyzed ([5]; humans, at the end of a 24-hour infusion): 33-66%
- bioconversion to SN-38 ([5]; in humans): ~5%
- Tumor weights on Day 34 Geometric mean ([6]; 50 mg/kg i.p. Q4D x 3 wks): 24.9 mg
- Tumor weights on Day 34 TGI % ([6]; 50 mg/kg i.p. Q4D x 3 wks): 85%

SMILES: CCc1c2c(nc3ccc(OC(=O)N4CCC(N5CCCCC5)CC4)cc13)-c1cc3c(c(=O)n1C2)COC(=O)[C@]3(O)CC [Irinotecan HCL trihydrate, Irinotecan HCL Trihydrate]
- Tumor weights on Day 32 Geometric mean [7]: 134.0 mg
- Tumor weights on Day 32 TGI % [7]: 84%
- Tumor weights on Day 34 Geometric mean [8]: 428.6 mg
- Tumor weights on Day 34 TGI % [8]: 60%
- Tumor weights on Day 34 Geometric mean ([6]; 20.8 mg/kg i.v. BIW x 3 wks): 171.0 mg
- Tumor weights on Day 34 TGI % ([6]; 20.8 mg/kg i.v. BIW x 3 wks): 78%

SMILES: CCc1c2c(nc3ccc(O)cc13)-c1cc3c(c(=O)n1C2)COC(=O)[C@]3(O)CC [SN-38, 7-Ethyl-10-hydroxy-camptothecin]
- SN-38 content calculated by HPLC ([9]; 2% HPC (vs NMP) in NMP/VitE TPGS (50 w/20 w)): 14.32 mg/g
- SN-38 content calculated by HPLC ([9]; 4% HPMC E4M (vs NMP) in NMP/VitE TPGS (50 w/20 w)): 14.03 mg/g
- SN-38 content calculated by HPLC ([9]; 4% HPMC E10M (vs NMP) in NMP/VitE TPGS (50 w/20 w)): 14.00 mg/g
- SN-38 content calculated by HPLC ([9]; 5% HPC (vs NMP) in NMP/VitE TPGS (50 w/20 w), 24 h stirring at 20° C.): 13.95 mg/g
- SN-38 precipitation on addition of gelling polymers ([9]; HPMC E4M, HPMC E10M or HPC added onto 15 mg/g SN-38 solution in NMP/VitE TPGS 50/20): No SN-38 precipitation is observed; also recorded: without precipitation of SN-38
- SN-38 content calculated by HPLC ([9]; No polymer in NMP/VitE TPGS (50 w/20 w), filtered 15 mg/g starting solution): 14.47 mg/g
- solubility in water ([1]; Zhang et al. 2004): < 40 µg/mL
- solubility (S) ([1]; background statement b6): < 10 µg/mL
- antigenic potential [3]: no antigenic potential
- cytotoxicity relative to CPT-11 [10]: 200-2000 times
- emesis or nausea ([4]; dogs, 11.6 mg/kg i.v.): no emesis or nausea was noted
- Concentration at which SN-38 is soluble [11]: 10 mg/g
- SN-38 solubility ([12]; in Cremophor EL at 30% in water, 20° C.): 0.017 mg/g
- SN-38 solubility ([12]; in Labrafil M1944CS, 20° C.): 0.054 mg/g
- SN-38 solubility ([12]; in NMP/VitE TPGS (50/20 w/w), 20° C.): 18.51 mg/g
- SN-38 solubility ([12]; in NMP/VitE TPGS/Capmul MCM/Tween 20 (50/20/10/20 w/w)): 7.57 mg/g
- SN-38 solubility ([12]; in NMP/VitE TPGS/GELUCIRE (50/20/20), 20° C.): 9.2 mg/g and 9.25 mg/g
- SN-38 solubility ([12]; in NMP/VitE TPGS/Isopropyl myristate/Solutol HS15 (50/20/10/20 w/w)): 9.04 mg/g
- SN-38 solubility ([12]; in NMP/VitE TPGS/KOLLIDON VA64 (50/20/20), 20° C.): 15.6 mg/g and 15.65 mg/g
- SN-38 solubility ([12]; in NMP/VitE TPGS/LUTROL F127 (50/20/20), 25° C.): 10.0 mg/g and 10.02 mg/g
- SN-38 solubility ([12]; in NMP/VitE TPGS/Labrafac Lipophile WL1349/Lauroglycol 90 (50/20/10/20 w/w)): 2.76 mg/g
- SN-38 solubility ([12]; in NMP/VitE TPGS/Mygliol 812/Propylene glycol (50/20/10/20 w/w)): 5.95 mg/g
- SN-38 solubility ([12]; in NMP, 24 h stirring at 20° C.): 42 mg/g
- SN-38 solubility ([12]; in Propylene glycol, 20° C.): 1.15 mg/g
- SN-38 solubility ([12]; in VitE TPGS at 20% in water, 20° C.): ≈0.01 mg/g
- SN-38 solubility ([12]; in all other tested media (other than NMP, propylene glycol, Capmul MCM)): lower than 0.054 mg/g
